# In US20060057657A1, “Stem cell selection and differentiation” (Oregon Health & Science University Technology & Research …, priority 2002, published 2006):
# Legend:
# Assay type in all cases: cell-based, mouse
# [1] = test system: ES cells; test: ES cell proliferation rate / doubling time under treatment
# Method: If grown in galactose as the sole carbon source, a sub-population of cells need to engage in active oxidative phosphorylation to convert galactose to glucose. In one embodiment, ES cells are selected in galactose-containing culture medium for an incubation period of about four days.
# (§1) In order to establish the relationship between ES cell JC-1 fluorescence, respiration and differentiation permissiveness, cells may be grown under hypoxic (<2% oxygen) or normnoxic conditions and assayed for JC-1 red/green ratio, oxygen consumption and lactate secretion, proliferation rate, ES cell self-renewal (STAT3 activity), and differentiation permissiveness by chimeric assays. ES cells with high mitochondrial membrane potential (as shown by high JC-1 red/green ratio) display low differentiation permissiveness, while those with low mitochondrial membrane potential (JC-1 green) display high differentiation permissiveness. […] ES cells on galactose also consume about 50% more oxygen than those sustained on glucose. ES cell proliferation rates for control and hypoxic cells (both with and without LIF) may be similar. […] STAT3 activity may be similar for normoxic and hypoxic cells.
# [2] = test system: ES cells; test: JC-1 red/green fluorescence (mitochondrial membrane potential) by flow analysis; details: galactose-containing culture medium, about four days
# Method: In order to assess if cells are primarily using oxidative phosphorylation or glycolysis, mitochondrial inner-membrane potential can be assayed by JC-1 fluorescence (1 ug/ml) in ES cells grown in both the presence (undifferentiated) and absence (differentiation) of LIF.
# The cells of Example 1 were stained with 1 μg/ml 5,5′,6,6′-tetrachloro-1,1′,3,3′-tetraethyl-benzimidazolylcarbocyanine iodide (JC-1, Molecular Probes, Eugene, Oreg.) and flow cytometry was performed using a FACSCalibur flow cytometer (Becton Dickinson, San Jose, Calif.). Cells were stained as above and sorted using a FACSVantage SE cell sorter (Becton Dickinson).
# [3] = test system: ES cells; test: Lactate secretion of ES cells; details: after 24 hours; normoxic and hypoxic ES cells about 80 mg/dl
# Description: as §1
# [4] = test system: ES cells; test: Oxygen consumption of ES cells; details: ES cells on galactose
# Description: as §1
# [5] = test system: ES cells; test: JC-1 fluorescence sensitivity to MDR inhibitors (JC-1 staining and flow cytometry); details: CsA 20 μM, verapamil 200 μM, reserpine 10 μM
# Method: ES cells were maintained in ES cell media consisting of DMEM (no pyruvate, high glucose) (Gibco-BRL), 15% fetal calf serum (FCS) (Hyclone), and supplements (as described in Robertson, E. J. (1987) IRL Press Limited, Oxford, page 71-112). Supplemental Leukemia Inhibitory Factor (LIF) (1:1000 dilution) was prepared by transfecting COS-7 cells (ATCC) with a LIF expression vector, pCAGGS-LIF, then collecting and testing the supernatant 48 hours later (as described in Smith, A. (1991) Journal of Tissue Culture Methods 13:89-94). Irradiated mouse embryonic fibroblasts (MEFs) were derived from d13 embryos for use as feeder cells (as described in Robertson (1987) (supra)). […]
# For MDR inhibitor dose response assays, cells were trypsinized for 15 minutes, quenched with ES cell media, triturated to a single cell suspension, and centrifuged at 1000 rpm for 5 minutes. […] Following centrifugation, cells were washed […] with cold HBSS, centrifuged and resuspended in cold PBS at the same concentration, placed on ice, and analyzed within 60 minutes (as described in Cossarizza et al. (1993) Biochem. Biophys. Res. Commun. 197:40-45). […]
# Using the cationic fluorescent dye, JC-1, functionally distinct populations of ES cells were identified. […] Generally, less than 5% of the cells maintained a “JC-1 green only” fluorescence profile when treated with any of these inhibitors. […]
structure (smiles),measurement,setting,value
"O=CC[C@@H](O)[C@H](O)[C@H](O)CO [2-dG, 2-deoxy glucose]",reduction of proliferation rate,[1]; 2-deoxy glucose 0.5 mM,≤ 3 fold
O=C[C@H](O)[C@@H](O)[C@@H](O)[C@H](O)CO [galactose],sub-population of ES cells showing JC-1 red fluorescence,[2],slightly increased
same,lactate secretion,[3],< 10 mg/dL
same,increase of doubling time,"[1]; galactose-containing culture medium, about four days",about 25%
same,doubling time,"[1]; galactose-containing culture medium, about four days, 16 hours under standard conditions",20 h
same,"oxygen consumption, more than cells sustained on glucose",[4],about 50%
CC[C@H]1/C=C/C=C/C[C@@H](C)[C@H](O)[C@@](C)(O)C(=O)[C@@H](C)[C@H](O)[C@@H](C)C(=O)[C@@H](C)[C@H](O)[C@@H](C)/C=C/C(=O)O[C@@H]2[C@H](C)[C@H](CC1)O[C@]1(CC[C@H](C)[C@H](C[C@@H](C)O)O1)[C@H]2C [oligomycin],effect on proliferation rates,[1]; oligomycin 3 μM or FCCP+ oligomycin,dramatically reduces proliferation rates
COC(=O)[C@H]1[C@H]2C[C@@H]3c4[nH]c5cc(OC)ccc5c4CCN3C[C@H]2C[C@@H](OC(=O)c2cc(OC)c(OC)c(OC)c2)[C@@H]1OC [reserpine],shift of JC-1 fluorescence on addition of inhibitor,[5],dramatic shift of the majority of cells towards red fluorescence
COc1ccc(CCN(C)CCCC(C#N)(c2ccc(OC)c(OC)c2)C(C)C)cc1OC (stereo not drawn) [verapamil],shift of JC-1 fluorescence on addition of inhibitor,[5],dramatic shift of the majority of cells towards red fluorescence
